Values joined by “and” are separate entries in the source; they are usually repeats but may differ in a detail not shown here. Identical values can stand only once. “Also recorded” adds a separate entry of the source. Like-named read-outs stand apart in the source and are kept apart here.
Assays:
PtdIns 4-kinase [1] = target: T1, PtdIns 4-kinase (Bos taurus, UniProt A6QLN5); experiment: PtdIns 4-kinase activity assay: kinetic parameters, specific activity, pH optimum; type: biochemical, bovine; conditions: for Km: assuming a molecular weight of 835.2 for PtdIns, read-out: apparent Km for PtdIns
T1 construct: It constitutes the major PtdIns 4-kinase activity of bovine uteri; from tissue; host or cells: bovine uterus (acetone powder, purified over ammonium sulfate, Mono Q, S-Sepharose, Mono Q, Mono P and hydroxylapatite)
T1 sequence (A6QLN5 1-479): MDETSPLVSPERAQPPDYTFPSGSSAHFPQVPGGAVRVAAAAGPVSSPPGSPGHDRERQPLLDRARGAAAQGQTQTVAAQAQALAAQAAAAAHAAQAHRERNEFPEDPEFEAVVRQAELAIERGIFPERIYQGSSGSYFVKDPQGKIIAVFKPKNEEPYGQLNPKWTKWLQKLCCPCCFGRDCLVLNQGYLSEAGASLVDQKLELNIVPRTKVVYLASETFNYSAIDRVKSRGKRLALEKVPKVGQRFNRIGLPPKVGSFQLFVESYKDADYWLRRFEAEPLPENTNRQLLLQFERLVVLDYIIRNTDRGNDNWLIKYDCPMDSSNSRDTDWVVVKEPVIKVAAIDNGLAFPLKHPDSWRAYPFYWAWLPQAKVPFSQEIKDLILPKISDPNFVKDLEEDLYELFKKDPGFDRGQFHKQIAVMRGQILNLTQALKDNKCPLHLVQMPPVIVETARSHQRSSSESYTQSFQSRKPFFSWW
Description: (§1) PtdIns 4-kinase activity was assayed in 60 μl at 30° C. in 20 mM BisTris-HCl (pH 7.0), 10 mM MgCl2, 1.0% Triton X-100, 0.25 mg/ml phosphatidylinositol, and 150 μM ATP (1.25 μCi[-^32 P]ATP), unless otherwise noted. The reaction was terminated by the addition of 12 μl of cold HCl, 120 μl of cold methanol, 150 μl of chloroform, and 40 μl of H2 O. The extracted samples were centrifuged at 12,000 × g for 1 min. and the aqueous layer removed and discarded. When needed, the organic phase was washed with 40 μl of cold methanol and 40 μl of cold 1.0 N HCl, centrifuged at 12,000 × g, and the aqueous layer was removed. The organic phase was then dried under vacuum in a Savant speed-vac, resuspended in 40 μl of chloroform/methanol (2:1), and chromatographed on potassium oxalate-impregnated Silica Gel 60 thin layer chromatography plates (TLC). The solvent system used consisted of chloroform/methanol/ammonium hydroxide/water (51:39.6:3:8.4). For two-dimensional thin layer chromatography, the preceding solvent system was used for the first dimension, and chloroform/methanol/acetic acid/water (50:39:1:10) was used for the second dimension. Standards were visualized by exposing the TLC plate to iodine vapor. The reaction product, phosphatidylinositol 4-phosphate, was visualized by autoradiography, and the corresponding area of the TLC plate was scraped and quantitated by Cherenkov counting. This assay was linear with respect to both protein concentration and time. For tests utilizing [^3 H]PtdIns, the corresponding areas of the TLC plates were scraped and the silica powder was suspended in a gel of Aquasol/H2 O (4:1) before counting. All assays (except column fractions) were done in duplicate or triplicate.
The purified PtdIns 4-kinase was used to determine the kinetic parameters of this enzyme for ATP and PtdIns. Optimal enzymatic activity was found at concentrations of ATP above 100 μM. […] In order to avoid potential effects on enzymatic activity due to changes in the Triton X-100/PtdIns micelles used as substrate, a constant molar ratio of Triton X-100 to PtdIns was used, and the concentration of Triton X-100 was maintained above its critical micellar concentration. […] The different Vmax values may be explained by the fact that the ATP substrate saturation curve was performed at a pH of 7.4 rather than 7.0.
In order to optimize the assay of this enzyme, the pH optimum for Ptdlns 4-kinase was determined. This enzyme was optimally active in the pH range of 6.0-7.0 (FIG. 4). Above a pH of 7.0 and below a pH of 6.0 the activity of this enzyme decreased sharply.

PtdIns 4-kinase [2] = target: T1, PtdIns 4-kinase; experiment: Specificity of PtdIns 4-kinase for a nucleotide phosphoryl donor ([3H]PtdIns as substrate); type: biochemical, bovine
Description: as §1, with “This assay was linear with respect to both protein concentration and time.” left out

PtdIns 4-kinase [3] = target: T1, PtdIns 4-kinase; experiment: Influence of divalent cations (Mg2+, Ca2+) on PtdIns 4-kinase activity; type: biochemical, bovine
Description: as §1, with “The” for “PtdIns 4-kinase activity was assayed in 60 μl at 30° C. in 20 mM BisTris-HCl (pH 7.0), 10 mM MgCl2, 1.0% Triton X-100, 0.25 mg/ml phosphatidylinositol, and 150 μM ATP (1.25 μCi[-^32 P]ATP), unless otherwise noted. The”, “The solvent system used consisted of chloroform/methanol/ammonium hydroxide/water (51:39.6:3:8.4).” left out, “This assay was linear with respect to both protein concentration and time.” left out

[4] = test system: PtdIns 4-kinase/PtdIns-4-P 5-kinase purified from bovine brain myelin; conditions: Saltiel et al., Biochem. J. 241, 759-763 (1987); cited from earlier work
[5] = nonlinear regression, Hill equation

Q: With `Nc1ncnc2c1ncn2[C@@H]1O[C@H](COP(=O)(O)OP(=O)(O)OP(=O)(O)O)[C@@H](O)[C@H]1O` [ATP] as the molecule, how does the “ATP concentration for optimal enzymatic activity” value (PtdIns 4-kinase [1]; FIG. 3A) read?
A: above 100 μM

Q: What about the “Vmax, ATP concentration varied” value (PtdIns 4-kinase [1]; pH 7.4) of the same molecule?
A: 2.2 µmol/mg/min

Q: What about the “utilization as phosphoryl donor (words)” value (PtdIns 4-kinase [2]; [3H]PtdIns as substrate) of the same molecule?
A: utilized; also recorded: will utilize

Q: What about the activity at 150 µM (PtdIns 4-kinase [2]; read-out: Relative activity with nucleotide donor) of the same molecule?
A: 100%

Q: Which IC50 (PtdIns 4-kinase [3]; 100 μM ATP, 100 μM EGTA, FIG. 6, read-out: free Ca2+ concentration giving 50% inhibition) does the source give for `[Ca+2]` [Ca^2+] here?
A: ~300 µM

Q: With `[Mg+2]` [Mg^2+] as the molecule, how does the “Hill coefficient of Mg2+ dependence” value (PtdIns 4-kinase [3]; [5]) read?
A: 1.9

Q: What about the “Ks of Mg2+ dependence” value (PtdIns 4-kinase [3]; [5]) of the same molecule?
A: 0.36

Q: Which Km [4] does the source give for phosphatidylinositol [PtdIns] here?
A: 400 µM

Q: What about the “PtdIns concentration for saturation of enzyme activity” value (PtdIns 4-kinase [1]; FIG. 3B) of the same molecule?
A: above 0.2 mg/ml

Q: What about the Km (PtdIns 4-kinase [1]; listed as phosphatidylinositol (PtdIns)) of the same molecule?
A: ~26 µM

Q: What about the Km (PtdIns 4-kinase [1]) of the same molecule?
A: 26 µM and ~26 µM

Q: And the “Vmax, PtdIns concentration varied” value (PtdIns 4-kinase [1]; pH 7.0)?
A: 3.3 µmol/mg/min

Q: And the “apparent Km for PtdIns” value (PtdIns 4-kinase [1]; purified enzyme, pH 7.0 (Tris-HCl), constant Triton X-100/PtdIns ratio)?
A: 22 µg/mL

Reference: patent US5001064A, “Phosphatidylinositol 4-kinase” (Washington University, priority 1988, dated 1991)
